Data on two molecules can be found in patent US5047418A, “Method of stimulating histamine H3 -receptors” (Smith Kline & French Laboratories Limited, priority 1989, dated 1991).

One assay has as its target T1, histamine H3 -receptor (Cavia porcellus, UniProt Q9JI35).
T1 construct: twitch responses of the guinea-pig ileum; from tissue; host or cells: guinea-pig ileum (isolated, electrically stimulated, organ bath)
Briefly: Inhibition of electrically evoked twitch responses of guinea-pig ileum (histamine H3-agonist activity). Particulars: read-out: EC50 (concentration of compound which caused 50% inhibition of the twitch response). The procedure: Inhibition of the electrically evoked twitch responses of the guinea-pig ileum by histamine H3 -receptor agonists was studied by addition of graded concentrations of the compound (in volumes of 25 μl or 79 μl) to the organ bath in a sequential manner. Each concentration of agonist was washed out of the bath when the response had reached equilibrium. A four minute period was allowed between each addition of the compound.

Assay [1] has as its target T2, histamine H2 -receptor (Cavia porcellus, UniProt P47747).
T2 construct: On the guinea-pig atrium; from tissue; host or cells: guinea-pig atrium (isolated tissue)
Briefly: Histamine H2-antagonist activity on guinea-pig atrium. Particulars: read-out: pA2 (histamine H2 -antagonist activity) (converted).

For assay [2], the target named is T3, histamine H1 -receptor (Cavia porcellus, UniProt P31389). Briefly: Histamine H1-agonist activity on guinea-pig ileum. The procedure: (§1) The activity of the compounds of the formula (1) at the histamine H1 - or H2 -receptor was assessed substantially as described by Parsons et al., Agents and Actions, 1976, 7(1), 31.
Assay [3] deals with T2, histamine H2 -receptor. Briefly: Histamine H2-agonist activity on guinea-pig atrium. The procedure:
as §1

In assay [4] the target is T3, histamine H1 -receptor. Briefly: Histamine H1-antagonist activity on guinea-pig ileum. The procedure:
as §1
On the guinea-pig ileum the compound of the formula (1) wherein X is CH2 had no histamine H1 -antagonist activity up to 10^-5 M.

A value given as a limit tells only on which side of the number the result lay.

T2 sequence (P47747 whole entry): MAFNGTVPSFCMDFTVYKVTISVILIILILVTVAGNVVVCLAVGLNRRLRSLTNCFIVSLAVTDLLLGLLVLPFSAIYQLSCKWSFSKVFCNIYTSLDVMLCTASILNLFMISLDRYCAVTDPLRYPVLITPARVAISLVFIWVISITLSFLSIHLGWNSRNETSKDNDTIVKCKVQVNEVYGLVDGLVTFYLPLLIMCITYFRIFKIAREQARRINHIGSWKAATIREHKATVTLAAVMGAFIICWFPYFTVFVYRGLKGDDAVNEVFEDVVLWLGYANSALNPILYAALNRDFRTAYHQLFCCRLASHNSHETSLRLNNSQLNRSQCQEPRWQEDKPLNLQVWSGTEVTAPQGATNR
T3 sequence (P31389 whole entry): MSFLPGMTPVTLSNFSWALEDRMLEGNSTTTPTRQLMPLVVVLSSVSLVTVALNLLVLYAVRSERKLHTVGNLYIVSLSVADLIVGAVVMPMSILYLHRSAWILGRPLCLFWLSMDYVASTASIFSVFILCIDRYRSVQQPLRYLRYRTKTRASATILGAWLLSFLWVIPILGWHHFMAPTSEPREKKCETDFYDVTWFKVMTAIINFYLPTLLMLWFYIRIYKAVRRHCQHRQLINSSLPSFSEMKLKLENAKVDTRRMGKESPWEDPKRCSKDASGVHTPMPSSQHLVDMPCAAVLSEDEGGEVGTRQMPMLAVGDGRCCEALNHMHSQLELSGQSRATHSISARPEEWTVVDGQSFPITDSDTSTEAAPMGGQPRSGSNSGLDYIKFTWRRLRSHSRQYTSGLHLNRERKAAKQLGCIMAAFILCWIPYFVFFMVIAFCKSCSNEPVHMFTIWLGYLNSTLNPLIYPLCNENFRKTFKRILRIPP
T1 sequence (Q9JI35 whole entry): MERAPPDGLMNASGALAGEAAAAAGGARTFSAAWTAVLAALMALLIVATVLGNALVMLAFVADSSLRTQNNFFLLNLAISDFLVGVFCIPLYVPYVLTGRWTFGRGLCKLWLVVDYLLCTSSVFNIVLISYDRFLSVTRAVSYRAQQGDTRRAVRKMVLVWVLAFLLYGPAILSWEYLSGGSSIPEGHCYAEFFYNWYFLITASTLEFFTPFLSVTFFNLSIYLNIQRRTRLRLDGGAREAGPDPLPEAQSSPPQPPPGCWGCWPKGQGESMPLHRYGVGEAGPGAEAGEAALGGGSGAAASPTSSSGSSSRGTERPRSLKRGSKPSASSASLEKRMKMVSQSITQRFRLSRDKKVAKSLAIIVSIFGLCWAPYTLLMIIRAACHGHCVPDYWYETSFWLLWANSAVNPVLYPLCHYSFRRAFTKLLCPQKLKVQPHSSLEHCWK

`N=C(N)SCCc1c[nH]cn1` [X = S, S-[2-(4(5)-imidazolyl)ethyl]isothiourea]: on histamine H3 -receptor, the EC50 stood at 0.0046 µM. Also, the Kb on histamine H2 -receptor [1] was 79.4 µM. Besides, the “concentration at which histamine H1 -agonist activity is demonstrated” value on histamine H1 -receptor [2] is given as 10^-4 to 10^-3 M.
As to `N=C(N)CCCc1c[nH]cn1` [X = CH2, 4-(4(5)-imidazolyl)butyramidine], the EC50 at histamine H3 -receptor came to 0.0011 µM. Moreover, the Kb at histamine H2 -receptor [1] is ~251 µM. The “concentration at which histamine H2 -agonist activity is demonstrated” value at histamine H2 -receptor [3] was > 10^-5 M. On histamine H1 -receptor [2], the “concentration at which histamine H1 -agonist activity is demonstrated” value is on record as > 10^-5 M. Moreover, at histamine H1 -receptor [4], the “concentration at which histamine H1 -antagonist activity is demonstrated” value is given as > 10^-5 M.
